# Reference: paper PMC5891061, “Electrophysiological mechanisms of vandetanib-induced cardiotoxicity: Comparison of action potentials in rabbit Purkinje fibers and pluripotent stem cell-derived cardiomyocytes” (PLoS ONE, 2018)
# Columns and labels:
# F656A hERG [1] = biological target: T1, F656A hERG (Homo sapiens, UniProt Q12809, F656A); experiment: in vitro; details: HEK-293 cells transiently expressing F656A mutant hERG
# S624A hERG = S624A hERG (Homo sapiens, UniProt Q12809, S624A); details: 3 μM
# Source text: (§1) The hERG mutations were constructed by site-directed mutagenesis of WT hERG cDNA in pcDNA3.1 vector using the QuickChange Site-Directed Mutagenesis Kit (Stratagene), and the integrity of the construct was verified by DNA sequencing. The WT hERG (generously donated by Professor Ho, Seoul National University, Korea) and mutant channels were transiently expressed in an HEK-293 cell line using Lipofectamine 2000 (Gibco), according to the manufacturer’s recommendations.
# WT (inward) hERG = WT (inward) hERG (Homo sapiens, UniProt Q12809); details: 3 μM, -120 mV, high K+
# Source text: as §1
# [2] = biological target: WT hERG (inward tail current) (Homo sapiens, UniProt Q12809); details: human, HEK-293 cells transiently expressing wild-type hERG
# Source text: as §1
# T623A hERG = T623A hERG (Homo sapiens, UniProt Q12809, T623A); details: 3 μM
# Source text: as §1
# F656A hERG [3] = biological target: T1, F656A hERG; details: 3 μM, -120 mV, high K+
# [4] = cited from earlier work
# SCN5A (INa) = biological target: T2, SCN5A (INa) (Homo sapiens, UniProt Q14524); experiment: Whole-cell patch clamp, INa in SCN5A-transfected HEK293 cells; type: cell-based; details: for INa current: HEK293
# T2 construct: expressed in transfected cells; host or cells: HEK293
# T2 sequence (Q14524 whole entry, species assumed): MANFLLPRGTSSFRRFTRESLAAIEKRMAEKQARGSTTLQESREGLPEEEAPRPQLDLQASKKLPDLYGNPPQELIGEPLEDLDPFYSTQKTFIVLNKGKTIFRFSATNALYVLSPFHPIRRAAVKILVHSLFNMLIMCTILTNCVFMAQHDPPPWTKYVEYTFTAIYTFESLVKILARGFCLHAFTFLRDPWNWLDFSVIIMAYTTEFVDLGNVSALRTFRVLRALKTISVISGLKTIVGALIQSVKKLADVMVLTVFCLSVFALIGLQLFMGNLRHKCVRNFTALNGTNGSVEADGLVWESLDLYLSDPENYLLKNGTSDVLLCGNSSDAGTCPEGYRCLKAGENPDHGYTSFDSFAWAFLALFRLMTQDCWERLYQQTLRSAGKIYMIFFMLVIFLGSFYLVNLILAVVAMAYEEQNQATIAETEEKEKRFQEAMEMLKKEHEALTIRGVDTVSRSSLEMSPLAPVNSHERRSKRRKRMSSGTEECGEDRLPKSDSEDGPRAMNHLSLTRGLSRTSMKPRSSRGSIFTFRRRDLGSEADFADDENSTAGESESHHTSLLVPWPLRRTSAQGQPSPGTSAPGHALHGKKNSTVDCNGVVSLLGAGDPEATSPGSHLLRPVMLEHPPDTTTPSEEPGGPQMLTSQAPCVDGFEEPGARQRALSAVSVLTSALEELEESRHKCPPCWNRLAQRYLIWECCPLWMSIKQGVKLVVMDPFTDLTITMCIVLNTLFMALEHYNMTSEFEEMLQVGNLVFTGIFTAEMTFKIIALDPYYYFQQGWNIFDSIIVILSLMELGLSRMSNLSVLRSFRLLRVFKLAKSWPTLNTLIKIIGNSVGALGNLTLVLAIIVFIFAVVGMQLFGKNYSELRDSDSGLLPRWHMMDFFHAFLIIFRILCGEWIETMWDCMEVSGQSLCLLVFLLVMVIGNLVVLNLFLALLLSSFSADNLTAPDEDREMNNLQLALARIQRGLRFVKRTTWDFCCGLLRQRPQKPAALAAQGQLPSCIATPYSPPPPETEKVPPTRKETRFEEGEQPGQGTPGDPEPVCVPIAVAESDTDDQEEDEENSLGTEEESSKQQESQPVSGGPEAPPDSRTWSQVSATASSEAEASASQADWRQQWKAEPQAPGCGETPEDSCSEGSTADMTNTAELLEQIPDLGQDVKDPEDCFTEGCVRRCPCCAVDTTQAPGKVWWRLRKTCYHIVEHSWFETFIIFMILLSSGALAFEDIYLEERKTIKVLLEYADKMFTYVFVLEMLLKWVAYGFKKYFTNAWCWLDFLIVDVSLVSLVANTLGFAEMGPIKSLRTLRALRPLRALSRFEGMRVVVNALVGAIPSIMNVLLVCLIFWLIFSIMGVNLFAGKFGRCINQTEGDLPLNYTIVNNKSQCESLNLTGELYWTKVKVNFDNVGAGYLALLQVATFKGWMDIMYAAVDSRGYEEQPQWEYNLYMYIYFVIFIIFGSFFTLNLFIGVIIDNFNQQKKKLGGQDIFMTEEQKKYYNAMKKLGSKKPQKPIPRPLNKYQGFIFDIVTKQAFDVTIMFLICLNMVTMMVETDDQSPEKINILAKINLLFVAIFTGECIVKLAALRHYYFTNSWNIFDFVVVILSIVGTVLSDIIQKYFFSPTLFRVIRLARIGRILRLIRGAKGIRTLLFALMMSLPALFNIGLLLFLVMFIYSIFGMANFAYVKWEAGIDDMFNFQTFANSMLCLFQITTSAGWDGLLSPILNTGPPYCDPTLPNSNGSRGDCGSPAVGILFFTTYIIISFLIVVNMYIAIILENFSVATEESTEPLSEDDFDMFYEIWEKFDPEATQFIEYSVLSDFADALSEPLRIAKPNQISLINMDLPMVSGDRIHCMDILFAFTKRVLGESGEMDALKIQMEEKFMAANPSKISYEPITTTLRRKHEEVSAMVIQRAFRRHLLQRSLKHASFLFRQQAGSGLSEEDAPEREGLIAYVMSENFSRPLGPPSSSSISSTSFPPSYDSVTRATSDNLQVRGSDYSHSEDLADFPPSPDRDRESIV
# Source text: For various aspects of cardiac ion channel study, human embryonic kidney (HEK293; ATCC, Manassas, VA, USA) cells were transiently transfected using lipofectAmin2000 (Gibco BRL, New York, NY, USA) according to the manufacturer’s instructions. The hERG (human ether-ago-go-related gene corresponding to IKr), KCNQ1/KCNE1 (the gene corresponding to IKs), KCNJ2 (the gene corresponding to IK1) or SCN5A (the gene corresponding to INa) cDNA was co-transfected with green fluorescence protein, the surface marker protein, to allow assessment of the transfection efficiency. For the calcium current, enzymatically isolated single rat ventricular myocytes were used. Briefly, the hearts were rapidly excised from anaesthetized Sprague–Dawley rats (250–350 g) and perfused via the aorta on a Langendorff apparatus with an oxygenated normal Tyrode (NT) solution for 5 min. To clear the blood, then perfused with Ca^2+-free normal Tyrode solution for 3 min. Next, the heart was perfused with enzyme solution containing 0.6 mg/mL collagenase (Worthington Biomedical Corp., Lakewood, NJ, USA) for 30–40 min. Finally, this enzyme-containing solution was washed out for 5 min. with a high-K^+ and low-Cl^-) Kraft-Bruhe solution. Following the isolation procedure, the left ventricle was dissected out and agitated mechanically with a fire-polished Pasteur pipette in Kraft-Bruhe solution to obtain single myocytes. The isolated myocytes were stored at 4°C until use.
# The external solution for recording the IhERG, IKs and INa channel currents was NT solution. […] Kraft-Bruhe solution for storage of the freshly isolated rat ventricular myocytes contained (in mM): 70 K-glutamate, 55 KCl, 10 HEPES, 3 MgCl2, 20 taurine, 20 KH2PO4, 0.5 ethylene glycol tetra acetic (K-EGTA) (pH 7.2 with KOH).
# pCLAMP (Axon Instruments, Foster City, CA, USA), Origin 8 (OriginLab Corp, Northampton, MA, USA), and Excel (Microsoft, Redmond, WA, USA) were used for data acquisition and analysis. The concentration–response relationships for drug-induced blockage were calculated using SigmaPlot (Systat Software, San Jose, CA, USA). […] Data are presented as the means ± SEM, and n represents the number of experimental replicates. Statistical significance was determined using the Student’s t-test and one-way ANOVA with post hoc testing using Dunnett’s method; p < 0.05 was considered to indicate statistical significance.
# For hERG tail current, the cells were depolarized for 2 s to +20 mV from a holding potential of -80 mV followed by a 3 s repolarization back to -40 mV. […] For slow delayed rectifier potassium current (IKs) recording, the cells were depolarized for 3s to +60 mV from a holding potential of -80 mV, followed by a 3 s repolarization back to -40 mV (Fig 2B). […]
compound,measurement,setting,value
COc1cc2c(Nc3ccc(Br)cc3F)ncnc2cc1OCC1CCN(C)CC1 [Vandetanib],inhibition at 3 μM,F656A hERG [1],27.4 ± 4.8%
same,S624A hERG current,S624A hERG,78.1 ± 31.0
same,WT (inward) hERG current,WT (inward) hERG,-1818.9 ± 217.3
same,inhibition at 3 μM,[2],69 ± 1.8%
same,T623A hERG current,T623A hERG,266.1 ± 117.0
same,F656A hERG current,F656A hERG [3],-1101.9 ± 122.4
same,Incidence of asymptomatic QTc prolongation,[4]; Japanese phase I trial,61%
same,"Patients with side effects such as diarrhea/colitis, rash, nausea, and hypertension",[4]; patients,> 20%
same,Patients who developed asymptomatic QTc prolongation,[4]; phase I trial in solid tumors,9%
same,Incidence of asymptomatic QT prolongation,[4]; phase II trials,15%
same,INa current,SCN5A (INa); 10 μM,-948.9 ± 24.2
same,INa current,SCN5A (INa); 30 μM,-743.0 ± 85.1
same,INa current,SCN5A (INa); 100 μM,-94.2 ± 36.8
same,IC50,SCN5A (INa); SCN5A-encoded HEK293 cells,36.6 µM
